Data: patent publication US20250204528A1, “USE OF 2-AMINO-3-INDOLYL BUTYRIC ACID OR 3-METHYLPYRROLIDINE-2-CARBOXYLIC ACID AS PLANT IMMUNITY ELICITOR” (NANJING TIANNONG BIOTECHNOLOGY CO., LTD, priority 2021, published 2025)

What was measured:
Assay type in all cases: in vivo
wheat powdery mildew = test: Field test of inducing wheat against infection by powdery mildew fungi; details: 1,000 nm
Protocol: Stems and leaves were sprayed with a 2-amino-3-indolyl butyric acid solution (0.02% by volume of a surfactant Tween 20 was added) at the concentration of 1,000 nm in a filed, sprayed with 0.02% by volume of the surfactant tween 20 as an auxiliary agent control and sprayed with 30 g/mu of ATaiLing as a positive control. Each treatment was repeated three times. The disease grade of the wheat after each treatment was investigated. The disease degree was recorded according to the wheat powdery mildew grading standard in the Guidelines for Field Efficacy Trials of Pesticides (I), and the disease indexes and the relative immune effects were calculated by using the same calculation formula as that of those of the tomato spotted wilt. After the harvested wheat seeds were air-dried, the thousand-grain weights of the wheat seeds after different treatments were measured.
Grading standard of wheat powdery mildew (taking leaves as units): • grade 1: the area of the disease spots accounted 5% or less of that of the whole leaves; • grade 3: the area of the disease spots accounted for 6%-15% of that of the whole leaves; and • grade 5: the area of the disease spots accounted for 16%-25% of that of the whole leaves; and • grade 7: the area of the disease spots accounted for 26%-50% of that of the whole leaves; and • grade 9: the area of the disease spots accounted for 50% or more of that of the whole leaves.

Arabidopsis thaliana = Arabidopsis thaliana under high temperature stress; design: Heat damage index: scale not given here; details: for Heat damage index: 45° C. 12 h, recovery 7 d; for PIABS: photosynthetic performance index after 45° C. 12 h; for Heat damage index reduced by: vs control group
Protocol: Arabidopsis thaliana seeds were sown in a pot with the diameter of 8.5 cm according to about 50 seeds per pot and planted in a greenhouse at 25° C. with the humidity of 60%-70% and the light intensity of 100 μmolm^−2s^−1 (16 h light/8 h dark). The treatment was started when the Arabidopsis thaliana normally grew for 21 d. Concentrations at 0 nm, 1 nm, 10 nm, 100 nm and 1,000 nm were set in the experiment. Meanwhile, 0.02% Tween 20 was added as a surfactant and four replicates were set. The spraying treatment was the same as that of the ryegrass in example 5. 24 h after the second spraying, the Arabidopsis thaliana was transferred to an illumination incubator at 45° C. for a high temperature stress treatment for 12 h. The chlorophyll fluorescences of the Arabidopsis thaliana leaf wafers were measured by using the plant efficiency Handy-PEA. The plants were taken out and transferred to the greenhouse at 25° C. for recovery for 7 d. The damage conditions of the plants were observed and counted, and the heat damage grades were calculated.

"Sikang 1" cotton = test: Cotton under salt stress (100 mM NaCl); details: 100 mM NaCl three days; for Mortality (%): cotton plants
Protocol: An experimental material was “Sikang 1” cotton which was hydroponic in a 500-mL plastic cup, and a ½ Hoagland nutrient solution was replaced every other two days. When the cotton seedling grew until the second true leaves were completely unfolded, a 2-amino-3-indolyl butyric acid solution was sprayed on the leaf surfaces. Concentrations at 0 nm, 1 nm, 10 nm, 100 nm and 1,000 nm were set in the experiment. Meanwhile, 0.02% Tween 20 was added as a surfactant. The solution was sprayed every 24 h for 2 times and NaCl was added into a ½ Hoagland nutrient solution the next day after the treatment to make the final concentration of 100 mM to perform a salt stress treatment. Each treatment was performed in three replicates. A rehydration treatment was performed after three days of the salt stress. The salt damage symptoms of the cotton were observed and a salt damage index was calculated by using a calculation formula as follows.

[1] = tested on: tea trees (Baiye 1 cutting seedlings); test: Tea tree under low temperature stress; details: for Cold damage index (%): 24 h at −4° C., recovery 3 d; for PIABS: after 24 h at −4° C.; for Cold damage index reduced by / PIABS of the tea leaves improved by: vs control
Protocol: The test tea trees were Baiye 1 cutting seedlings.
The tea seedlings with consistent growth vigor were selected to be transplanted into a plastic pot with the diameter of 18 cm and placed in a greenhouse at 25° C. and with the humidity of 60%-70% to be adapted for growing for about one week for the experiment. Concentrations at 0 nm, 1 nm, 10 nm, 100 nm and 1,000 nm were set in the experiment. Meanwhile, 0.02% Tween 20 was added as a surfactant. The spraying treatment was the same as that of the ryegrass in example 1. A low temperature stress was performed for 24 h at −4° C. The tea seedlings after the stress was finished were taken out and subjected to a dark treatment at normal temperature for 30 min. The chlorophyll fluorescences of leaves at the tops of the tea seedlings were measured by using the plant efficiency Handy-PEA. Then the tea seedlings were placed in the greenhouse at 25° C. for recovery for 3 d. The cold damage conditions were observed, counted and graded. The cold damage index counting and grading standard was shown in table 13 and a calculation formula was as follows.

[2] = compared with the auxiliary agent control

SMILES: CC(c1c[nH]c2ccccc12)C(N)C(=O)O (stereo not drawn)
- Relative immune effect (%) (wheat powdery mildew): 40.55%
- Thousand-grain weight (wheat powdery mildew): 27.39 g
- Thousand-grain weight (g) (wheat powdery mildew): 27.39 ± 0.29a g
- Relative immune effect improved by (wheat powdery mildew; compared with Altailing control group): 12%
- Relative immune effect improved by (wheat powdery mildew; [2]): 40%
- Thousand-grain weight increased by (wheat powdery mildew; [2]): 10.80%
- Disease index reduced by (wheat powdery mildew; vs auxiliary agent control group): 40.55%
- Heat damage index (Arabidopsis thaliana; 1 nm): 58
- PIABS (Arabidopsis thaliana; 1 nm): 0.90 ± 0.04e
- Heat damage index (Arabidopsis thaliana; 10 nm): 46
- PIABS (Arabidopsis thaliana; 10 nm): 1.14 ± 0.15 days
- Heat damage index (Arabidopsis thaliana; 100 nm): 33
- PIABS (Arabidopsis thaliana; 100 nm): 3.28 ± 0.20c
- PIABS increased by (times) compared with the control group (Arabidopsis thaliana; 1,000 nm): 20 times
- Heat damage index (Arabidopsis thaliana; 1,000 nm): 10
- PIABS (Arabidopsis thaliana; 1,000 nm): 7.13 ± 0.23b
- Heat damage index reduced by (Arabidopsis thaliana; 1,000 nm): 65%
- Salt damage index (%) ("Sikang 1" cotton; 1 nm): 63%
- Mortality (%) ("Sikang 1" cotton; 1 nm): 45%
- Salt damage index (%) ("Sikang 1" cotton; 10 nm): 57%
- Mortality (%) ("Sikang 1" cotton; 10 nm): 43%
- Salt damage index (%) ("Sikang 1" cotton; 100 nm): 53%
- Mortality (%) ("Sikang 1" cotton; 100 nm): 33%
- Salt damage index (%) ("Sikang 1" cotton; 1,000 nm): 44%
- Mortality (%) ("Sikang 1" cotton; 1,000 nm): 27%
- Cold damage index (%) ([1]; 1 nm): 52%
- PIABS ([1]; 1 nm): 26.3 ± 0.04
- Cold damage index (%) ([1]; 10 nm): 45%
- PIABS ([1]; 10 nm): 30.10 ± 1.70c
- Cold damage index (%) ([1]; 100 nm): 35%
- PIABS ([1]; 100 nm): 36.51 ± 3.14ab
- Cold damage index (%) ([1]; 1,000 nm): 28%
- PIABS ([1]; 1,000 nm): 39.36 ± 2.15a
- Cold damage index reduced by ([1]; 1,000 nm): 40%
- PIABS of the tea leaves improved by ([1]; 1,000 nm): 52%

SMILES: CC1CCNC1C(=O)O (stereo not drawn) [3-methylpyrrolidine-2-carboxylic acid]
- Heat damage index (Arabidopsis thaliana; 1 nm): 48
- PIABS (Arabidopsis thaliana; 1 nm): 1.87 ± 0.03e
- Heat damage index (Arabidopsis thaliana; 10 nm): 37
- PIABS (Arabidopsis thaliana; 10 nm): 4.06 ± 0.17 days
- Heat damage index (Arabidopsis thaliana; 100 nm): 30
- PIABS (Arabidopsis thaliana; 100 nm): 6.53 ± 0.23c
- PIABS increased by (times) compared with the control group (Arabidopsis thaliana; 1,000 nm): 23 times
- Heat damage index (Arabidopsis thaliana; 1,000 nm): 8
- PIABS (Arabidopsis thaliana; 1,000 nm): 10.26 ± 0.46b
- Heat damage index reduced by (Arabidopsis thaliana; 1,000 nm): 68%
- Salt damage index (%) ("Sikang 1" cotton; 1 nm): 67%
- Mortality (%) ("Sikang 1" cotton; 1 nm): 47%
- Salt damage index (%) ("Sikang 1" cotton; 10 nm): 54%
- Mortality (%) ("Sikang 1" cotton; 10 nm): 42%
- Salt damage index (%) ("Sikang 1" cotton; 100 nm): 49%
- Mortality (%) ("Sikang 1" cotton; 100 nm): 28%
- Salt damage index (%) ("Sikang 1" cotton; 1,000 nm): 39%
- Mortality (%) ("Sikang 1" cotton; 1,000 nm): 24%
- Cold damage index (%) ([1]; 1 nm): 47%
- PIABS ([1]; 1 nm): 23.01 ± 0.02
- Cold damage index (%) ([1]; 10 nm): 43%
- PIABS ([1]; 10 nm): 29.65 ± 1.81c
- Cold damage index (%) ([1]; 100 nm): 34%
- PIABS ([1]; 100 nm): 35.01 ± 0.27b
- Cold damage index (%) ([1]; 1,000 nm): 27%
- PIABS ([1]; 1,000 nm): 41.07 ± 0.31a
- Cold damage index reduced by ([1]; 1,000 nm): 48%
- PIABS of the tea leaves improved by ([1]; 1,000 nm): 138%
